# Laboratory results reported in ChEMBL document CHEMBL1201862, “PubChem BioAssay data set” (2004).
#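 Values below derive from 48-hour exposures of cells grown in 96-well plates, with endpoints linearly interpolated between the two concentrations bracketing the appropriate inhibition level. Here, GI50 denotes the concentration required for 50% inhibition of growth.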 Calls of active or inactive are those of the source. Rule as the data show it: active = GI50 up to about 1.1 µM and inactive = higher.
# Tests used:
# Assay in all cases: DTP human tumour cell line panel, 48 h
# T47D = tested on: T47D
# Hs-578T = tested on: Hs-578T
# NCI/ADR-RES = tested on: NCI/ADR-RES
# UO-31 = tested on: UO-31
# MCF7 = tested on: MCF7
# ACHN = tested on: ACHN
# HCT-116 = tested on: HCT-116
# SW-620 = tested on: SW-620
# UACC-257 = tested on: UACC-257
# RXF 393 = tested on: RXF 393
# SF-295 = tested on: SF-295
# SNB-75 = tested on: SNB-75
# MOLT-4 = tested on: MOLT-4
# CAKI-1 = tested on: CAKI-1
# COLO 205 = tested on: COLO 205
# MDA-N = tested on: MDA-N
# 786-0 = tested on: 786-0
# SN12C = tested on: SN12C
# MDA-MB-435 = tested on: MDA-MB-435
# SF-268 = tested on: SF-268
# NCI-H522 = tested on: NCI-H522
# DU-145 = tested on: DU-145
# SF-539 = tested on: SF-539
# M14 = tested on: M14
# HT-29 = tested on: HT-29
# KM12 = tested on: KM12
# OVCAR-4 = tested on: OVCAR-4
# CCRF-CEM = tested on: CCRF-CEM
# UACC-62 = tested on: UACC-62
# SK-OV-3 = tested on: SK-OV-3
# HOP-92 = tested on: HOP-92
# Malme-3M = tested on: Malme-3M
# HCT-15 = tested on: HCT-15
# SK-MEL-5 = tested on: SK-MEL-5
# BT-549 = tested on: BT-549
# U-251 = tested on: U-251
# A549 = tested on: A549
# PC-3 = tested on: PC-3
# HOP-62 = tested on: HOP-62
# A498 = tested on: A498
# LOX IMVI = tested on: LOX IMVI
# HCC 2998 = tested on: HCC 2998
# SK-MEL-2 = tested on: SK-MEL-2
# EKVX = tested on: EKVX
# OVCAR-8 = tested on: OVCAR-8
# IGROV-1 = tested on: IGROV-1
# OVCAR-3 = tested on: OVCAR-3
# NCI-H460 = tested on: NCI-H460
# TK-10 = tested on: TK-10
# NCI-H226 = tested on: NCI-H226
# MDA-MB-231 = tested on: MDA-MB-231
# K562 = tested on: K562
# SK-MEL-28 = tested on: SK-MEL-28
# SNB-19 = tested on: SNB-19
# NCI-H23 = tested on: NCI-H23
# HL-60 = tested on: HL-60
# RPMI-8226 = tested on: RPMI-8226
# OVCAR-5 = tested on: OVCAR-5
structure (smiles),measurement,setting,value
Cc1nc(O)nc2nc3cc(Cl)cc(Cl)c3c(NC(C)(CO)CO)c12,GI50,T47D,> 100 µM (inactive)
same,GI50,Hs-578T,31.6 µM (inactive)
same,GI50,NCI/ADR-RES,> 100 µM (inactive)
same,GI50,UO-31,91 µM (inactive)
same,GI50,MCF7,1.55 µM (inactive)
same,GI50,ACHN,50.5 µM (inactive)
same,GI50,HCT-116,34 µM (inactive)
same,GI50,SW-620,> 100 µM (inactive)
same,GI50,UACC-257,> 100 µM (inactive)
same,GI50,RXF 393,27.8 µM (inactive)
same,GI50,SF-295,30.3 µM (inactive)
same,GI50,SNB-75,11.4 µM (inactive)
same,GI50,MOLT-4,> 100 µM (inactive)
same,GI50,CAKI-1,94.6 µM (inactive)
same,GI50,COLO 205,> 100 µM (inactive)
same,GI50,MDA-N,> 100 µM (inactive)
same,GI50,786-0,15.6 µM (inactive)
same,GI50,SN12C,> 100 µM (inactive)
same,GI50,MDA-MB-435,> 100 µM (inactive)
same,GI50,SF-268,25.7 µM (inactive)
same,GI50,NCI-H522,> 100 µM (inactive)
same,GI50,DU-145,29.2 µM (inactive)
same,GI50,SF-539,> 100 µM (inactive)
same,GI50,M14,> 100 µM (inactive)
same,GI50,HT-29,> 100 µM (inactive)
same,GI50,KM12,> 100 µM (inactive)
same,GI50,OVCAR-4,> 100 µM (inactive)
same,GI50,CCRF-CEM,> 100 µM (inactive)
same,GI50,UACC-62,72.3 µM (inactive)
same,GI50,SK-OV-3,26.8 µM (inactive)
same,GI50,HOP-92,16.4 µM (inactive)
same,GI50,Malme-3M,> 100 µM (inactive)
same,GI50,HCT-15,> 100 µM
same,GI50,SK-MEL-5,> 100 µM (inactive)
same,GI50,BT-549,35.6 µM (inactive)
same,GI50,U-251,14.4 µM (inactive)
same,GI50,A549,> 100 µM (inactive)
same,GI50,PC-3,> 100 µM (inactive)
same,GI50,HOP-62,23.5 µM (inactive)
same,GI50,A498,13.6 µM (inactive)
same,GI50,LOX IMVI,> 100 µM (inactive)
same,GI50,HCC 2998,> 100 µM (inactive)
same,GI50,SK-MEL-2,29.1 µM (inactive)
same,GI50,EKVX,> 100 µM (inactive)
same,GI50,OVCAR-8,75.2 µM (inactive)
same,GI50,IGROV-1,35.9 µM (inactive)
same,GI50,OVCAR-3,> 100 µM (inactive)
same,GI50,NCI-H460,> 100 µM (inactive)
same,GI50,TK-10,27.4 µM (inactive)
same,GI50,NCI-H226,> 100 µM (inactive)
same,GI50,MDA-MB-231,14.7 µM (inactive)
same,GI50,K562,> 100 µM (inactive)
same,GI50,SK-MEL-28,> 100 µM (inactive)
same,GI50,SNB-19,21.4 µM (inactive)
same,GI50,NCI-H23,81.8 µM (inactive)
CN(C)CCCNc1nnc(NCCCN(C)C)c2c(=O)c3sccc3[nH]c12,GI50,T47D,19.4 µM (inactive)
same,GI50,Hs-578T,23.2 µM (inactive)
same,GI50,HL-60,3.59 µM (inactive)
same,GI50,NCI/ADR-RES,8.15 µM (inactive)
same,GI50,UO-31,2.75 µM (inactive)
same,GI50,MCF7,5.64 µM (inactive)
same,GI50,ACHN,5.85 µM (inactive)
same,GI50,HCT-116,9.46 µM (inactive)
same,GI50,SW-620,4.56 µM (inactive)
same,GI50,UACC-257,22.4 µM (inactive)
same,GI50,RXF 393,15 µM (inactive)
same,GI50,SF-295,13.7 µM (inactive)
same,GI50,SNB-75,6.73 µM (inactive)
same,GI50,MOLT-4,3.24 µM (inactive)
same,GI50,CAKI-1,5.05 µM (inactive)
same,GI50,RPMI-8226,9.02 µM (inactive)
same,GI50,COLO 205,2.82 µM (inactive)
same,GI50,MDA-N,3.4 µM (inactive)
same,GI50,786-0,4.59 µM (inactive)
same,GI50,SN12C,3.19 µM (inactive)
same,GI50,MDA-MB-435,8.15 µM (inactive)
same,GI50,SF-268,5.53 µM (inactive)
same,GI50,NCI-H522,4.02 µM (inactive)
same,GI50,DU-145,8.75 µM (inactive)
same,GI50,SF-539,5.51 µM (inactive)
same,GI50,M14,11.7 µM (inactive)
same,GI50,OVCAR-5,16.6 µM (inactive)
same,GI50,KM12,5.75 µM (inactive)
same,GI50,OVCAR-4,5.42 µM (inactive)
same,GI50,CCRF-CEM,9.48 µM (inactive)
same,GI50,UACC-62,14.2 µM (inactive)
same,GI50,SK-OV-3,12.9 µM (inactive)
same,GI50,HOP-92,35.8 µM (inactive)
same,GI50,Malme-3M,15.5 µM (inactive)
same,GI50,HCT-15,6.62 µM
same,GI50,SK-MEL-5,1.4 µM (inactive)
same,GI50,BT-549,32.1 µM (inactive)
same,GI50,U-251,22.2 µM (inactive)
same,GI50,A549,5.41 µM (inactive)
same,GI50,PC-3,6.01 µM (inactive)
same,GI50,HOP-62,5.77 µM (inactive)
same,GI50,A498,41.4 µM (inactive)
same,GI50,LOX IMVI,14 µM (inactive)
same,GI50,HCC 2998,6.68 µM (inactive)
same,GI50,SK-MEL-2,18.4 µM (inactive)
same,GI50,EKVX,8.91 µM (inactive)
same,GI50,OVCAR-8,3 µM (inactive)
same,GI50,IGROV-1,5.69 µM (inactive)
same,GI50,OVCAR-3,14.2 µM (inactive)
same,GI50,NCI-H460,3.51 µM (inactive)
same,GI50,TK-10,9.86 µM (inactive)
same,GI50,NCI-H226,8.95 µM (inactive)
same,GI50,MDA-MB-231,6 µM (inactive)
same,GI50,K562,3.48 µM (inactive)
same,GI50,SK-MEL-28,28.8 µM (inactive)
same,GI50,SNB-19,31.7 µM (inactive)
same,GI50,NCI-H23,10.8 µM (inactive)
CC1=NN(C(=O)CC(=O)N(C(=O)c2ccccc2)c2ccc(Cl)cc2)C(=O)C1/N=N/c1ccc([N+](=O)[O-])cc1 (centres undefined),GI50,T47D,> 10 µM (inactive)
same,GI50,Hs-578T,> 10 µM (inactive)
same,GI50,HL-60,> 10 µM (inactive)
same,GI50,NCI/ADR-RES,> 10 µM (inactive)
same,GI50,UO-31,> 10 µM (inactive)
same,GI50,MCF7,> 10 µM (inactive)
same,GI50,ACHN,> 10 µM (inactive)
same,GI50,HCT-116,> 10 µM (inactive)
same,GI50,SW-620,> 10 µM (inactive)
same,GI50,UACC-257,> 10 µM (inactive)
same,GI50,RXF 393,> 10 µM (inactive)
same,GI50,SF-295,> 10 µM (inactive)
same,GI50,SNB-75,> 10 µM (inactive)
same,GI50,MOLT-4,6.49 µM (inactive)
same,GI50,CAKI-1,> 10 µM (inactive)
same,GI50,RPMI-8226,> 10 µM (inactive)
same,GI50,COLO 205,> 10 µM (inactive)
same,GI50,MDA-N,> 10 µM (inactive)
same,GI50,786-0,> 10 µM (inactive)
same,GI50,SN12C,> 10 µM (inactive)
same,GI50,MDA-MB-435,> 10 µM (inactive)
same,GI50,SF-268,> 10 µM (inactive)
same,GI50,NCI-H522,> 10 µM (inactive)
same,GI50,DU-145,> 10 µM (inactive)
same,GI50,SF-539,> 10 µM (inactive)
same,GI50,HT-29,> 10 µM (inactive)
same,GI50,OVCAR-5,> 10 µM (inactive)
same,GI50,KM12,> 10 µM (inactive)
same,GI50,OVCAR-4,> 10 µM (inactive)
same,GI50,CCRF-CEM,> 10 µM (inactive)
same,GI50,UACC-62,> 10 µM (inactive)
same,GI50,SK-OV-3,> 10 µM (inactive)
same,GI50,HOP-92,> 10 µM (inactive)
same,GI50,Malme-3M,> 10 µM (inactive)
same,GI50,HCT-15,> 10 µM
same,GI50,SK-MEL-5,> 10 µM (inactive)
same,GI50,BT-549,> 10 µM (inactive)
same,GI50,U-251,> 10 µM (inactive)
same,GI50,A549,> 10 µM (inactive)
same,GI50,PC-3,> 10 µM (inactive)
same,GI50,HOP-62,> 10 µM (inactive)
same,GI50,A498,> 10 µM (inactive)
same,GI50,LOX IMVI,> 10 µM (inactive)
same,GI50,HCC 2998,> 10 µM (inactive)
same,GI50,SK-MEL-2,> 10 µM (inactive)
same,GI50,EKVX,> 10 µM (inactive)
same,GI50,OVCAR-8,> 10 µM (inactive)
same,GI50,IGROV-1,> 10 µM (inactive)
same,GI50,OVCAR-3,> 10 µM (inactive)
same,GI50,NCI-H460,> 10 µM (inactive)
same,GI50,TK-10,> 10 µM (inactive)
same,GI50,NCI-H226,> 10 µM (inactive)
same,GI50,MDA-MB-231,> 10 µM (inactive)
same,GI50,K562,> 10 µM (inactive)
same,GI50,SK-MEL-28,> 10 µM (inactive)
same,GI50,SNB-19,> 10 µM (inactive)
same,GI50,NCI-H23,> 10 µM (inactive)
